# Test results from patent publication US20110263647A1 (AMGEN INC., priority 2009, published 2011).
# Like-named read-outs stand apart in the source and are kept apart here.
# Experiments:
# CYP2D6 = target: T1, CYP2D6 (Homo sapiens, UniProt P10635); test: CYP2D6 inhibition assay (bufuralol, pooled human liver microsomes); assay type: in vitro ADME; conditions: pH 7.4, probe bufuralol (5 μM), test compound 3 μM, human liver microsomes 0.25 mg/mL
# T1 construct: tissue XenoTech LLC Lot 0610351; host or cells: pooled human liver microsomes
# T1 sequence (P10635 whole entry): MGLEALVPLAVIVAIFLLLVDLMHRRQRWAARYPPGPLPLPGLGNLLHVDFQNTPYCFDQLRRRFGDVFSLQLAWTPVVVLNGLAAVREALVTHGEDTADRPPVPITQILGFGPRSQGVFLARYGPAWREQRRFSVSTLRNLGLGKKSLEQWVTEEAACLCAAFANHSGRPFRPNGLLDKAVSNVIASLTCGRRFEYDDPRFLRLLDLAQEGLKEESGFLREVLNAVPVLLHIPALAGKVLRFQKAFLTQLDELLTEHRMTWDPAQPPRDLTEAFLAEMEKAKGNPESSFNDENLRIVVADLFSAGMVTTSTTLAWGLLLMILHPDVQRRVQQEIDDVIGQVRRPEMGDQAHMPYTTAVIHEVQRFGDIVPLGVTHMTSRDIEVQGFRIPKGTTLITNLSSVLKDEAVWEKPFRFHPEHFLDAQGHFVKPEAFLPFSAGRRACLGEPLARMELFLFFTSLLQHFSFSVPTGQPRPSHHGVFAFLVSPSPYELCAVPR
# Experimental: (§1) Midazolam was obtained from BD Gentest (Waltham, Mass.); 1′ hydroxy midazolam and 1-hydroxy bufuralol maleate were obtained from Ultrafine Chemicals (Manchester, UK); bufuralol HCl, ketoconazole, quinidine, potassium phosphate, and NADPH were obtained from Sigma (St. Louis, Mo.). Test compounds were prepared at 10 mM concentration in DMSO (Mallinckrodt Inc., St. Louis, Mo.). NADPH was prepared at 10 mM concentration in a pH 7.4 buffer (8.3 mg/mL 66.7 mM potassium phosphate). Midazolam was prepared at 1 mM concentration in deionized water (Amgen, Thousand Oaks, Calif.), and bufuralol was prepared at 2 mM concentration in deionized water. A stock solution of ketoconazole was prepared at 37 mM concentration in DMSO, and quinidine was prepared at 500 uM concentration in DMSO. Formic acid in acetonitrile (0.05%, ACN) was used as a quench solution (Sigma-Aldrich, St. Louis, Mo.). All solvents used for LC/MS were of chromatographic grade. Pooled human liver microsomes (Lot 0610351) were purchased from XenoTech LLC, (Lenexa, Kans.).
# Pooled human liver microsomes (0.25 mg/mL) were incubated at 37° C. in a phosphate buffer (66.7 mM potassium phosphate at pH 7.4) with the selective CYP2D6 substrate bufuralol at a concentration of 5 μM in the presence and absence of test compound (3 μM). The reaction was started with the addition of NADPH (1 mM final concentration). The reaction was stopped after 10 minutes by addition of formic acid in acetonitrile. 1-Hydroxybufuralol metabolite formation was measured by an HPLC MS detection method (mobile phases for HPLC were: 0.1% AcOH in 5% MeOH, and 0.1% AcOH in 95% MeOH; the HPLC column was an Onyx Monolithic C18 CHO-7645 HPLC column from Phenomenex; Shimadzu LC-10ADVP equipped Biomek FX Liquid handling system and CTC Analytics PAL well auto-sampler; Mass spectrometer: Applied Biosystems API 3000 using Analyst 1.4.1 software). Inhibition was determined by the ratio of the amount of 1-hydroxy bufuralol metabolite formed metabolite in the presence of test compound to the amount of metabolite in the absence of test compound.
# CYP3A4 = target: T2, CYP3A4 (Homo sapiens, UniProt P08684); test: CYP3A4 inhibition assay (midazolam, pooled human liver microsomes); assay type: in vitro ADME; conditions: pH 7.4, probe midazolam (2.5 μM), test compound 3 μM, human liver microsomes 0.1 mg/mL
# T2 construct: tissue XenoTech LLC Lot 0610351; host or cells: pooled human liver microsomes
# T2 sequence (P08684 whole entry): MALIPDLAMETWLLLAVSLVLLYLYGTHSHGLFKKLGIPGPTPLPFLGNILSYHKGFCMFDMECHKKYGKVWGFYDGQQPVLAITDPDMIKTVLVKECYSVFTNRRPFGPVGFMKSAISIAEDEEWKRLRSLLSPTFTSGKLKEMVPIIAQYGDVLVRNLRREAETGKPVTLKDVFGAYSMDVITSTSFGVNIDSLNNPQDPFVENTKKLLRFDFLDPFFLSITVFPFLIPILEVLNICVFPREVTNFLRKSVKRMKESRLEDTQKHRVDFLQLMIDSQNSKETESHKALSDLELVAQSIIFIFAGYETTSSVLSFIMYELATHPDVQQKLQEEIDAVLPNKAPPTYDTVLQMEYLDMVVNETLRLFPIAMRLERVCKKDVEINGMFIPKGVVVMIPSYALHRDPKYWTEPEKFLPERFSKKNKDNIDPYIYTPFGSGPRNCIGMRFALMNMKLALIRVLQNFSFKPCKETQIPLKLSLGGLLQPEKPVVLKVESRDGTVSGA
# Experimental: as §1
# Pooled human liver microsomes (0.1 mg/mL) were incubated at 37° C. in a phosphate buffer (66.7 mM potassium phosphate at pH 7.4) with the selective CYP3A substrate midazolam at a concentration of 2.5 μM in the presence and absence of test compound (3 μM). The reaction was started with the addition of NADPH (1 mM final concentration). The reaction was stopped after 10 minutes by addition of formic acid in acetonitrile. 1′-Hydroxymidazolam metabolite formation was measured by an HPLC MS detection method (mobile phases were 0.1% AcOH in 5% MeOH, and 0.1% AcOH in 95% MeOH; the HPLC column was an Onyx Monolithic C18 CHO-7645 HPLC column obtained from Phenomenex; Shimadzu LC-10ADVP equipped Biomek FX Liquid handling system and CTC Analytics PAL well auto-sampler; Mass spectrometer: Applied Biosystems API 3000 using Analyst 1.4.1 software). Inhibition was determined by the ratio of the amount of 1′-hydroxy midazolam metabolite formed in the presence of test compound to the amount of metabolite found in the absence of test compound Inhibition was measured relative to the rate of formation of 1′-hydroxy midazolam incubated at 2.5 μM without test compound.
# [1] = In vivo pharmacokinetics, IV and oral gavage; parameters: species or system male Sprague-Dawley rats; conditions: rat; for FPO: Table 5; for Fpo (%): Table 6; for clearance / AUC(0-t) / Cmax / Vd: male, Sprague-Dawley, plasma; for Vd: read-out: Vss
# Experimental: In vivo pharmacokinetic parameters were determined by measuring systemic plasma exposure in male Sprague-Dawley rats (Charles River Laboratories or Taconic, Oxnard, Calif.) by intravenous administration (N=3 fed rats: 2 mg/kg tail vein injection in DMSO) and oral gavage (N=3 fasted rats: 5 mg/kg in 1% Tween 80-2% HPMC-97% deionized water-pH 2.0 vehicle) (Comparative Example 18′ was only dosed IV and at 0.5 mg/kg). DMSO was obtained from Mallinckrodt Inc.; Tween 80 was obtained from Croda; HPMC is Methocel E50 Premium LV, obtained from Dow Excipients. Following oral administration, blood was drawn (250 μL) at 0.25, 0.5, 1, 2, 4, 6, 8, 12, and 16 hours. Following iv administration, blood was drawn (250 μL) at 0.083, 0.25, 0.5, 1, 2, 4, 6, 8, and 16 hours. Blood samples were drawn using a Culex® In Vivo Sampling System (BASi) and collected in BD Microtainer® tubes containing Lithium Heparin (BD). Plasma was obtained by centrifugation of blood at 14000 g and 2-8° C. for five minutes using an Eppendorf 5417R Centrifuge System. Plasma samples were mixed with 2× volume of acetonitrile (Sigma-Aldrich, St. Louis, Mo.). The mixture was stirred briefly using a vortex mixer and then centrifuged at 2867 g for 5 minutes in a Beckman Coulter Allegra 25R equipped with a Type S5700 rotor. The supernatant was removed and diluted 2× with mobile phase A (5/94.9/0.1 v/v/v MeOH/water/AcOH). Plasma concentrations were determined using liquid chromatography/tandem mass spectrometry, with electrospray ionization (ESI) and multiple reaction monitoring in the positive ion mode (Sciex API 3000 mass spectrometer connected to a Shimadzu LC-20AD pump and a LEAP PAL autosampler. Typical conditions used for HPLC were: mobile phase A=5/94.9/0.1 v/v/v MeOH/water/AcOH and mobile phase B=95/4.9/0.1 v/v/v MeOH/water/AcOH; HPLC column was a Varian MonoChrom C18.3μ for 2×30 mm and 51.1 for 2×50 mm) Instrument response was calibrated by a standard curve over 0.1-2000 ng/mL concentration range, and the lower limit of quantitation was 0.1-2.5 ng/mL. Peak areas were integrated on a Windows 2000 computer using the Sciex program Analyst® (Version 1.4.1). Following peak area integration, the data were exported to the software package (Watson® Non-GLP PROD (Version 7.0.0.01, Thermo Electron Corp., Waltham, Mass.)), where concentrations were determined by a weighted linear regression of peak area versus the nominal concentrations of the calibration standards. Calculations were performed on unrounded numbers. The Watson® Non-GLP PROD software was used to determine precision and accuracy for the calibration standards. Noncompartmental analysis of plasma concentration data was used to generate PK parameters such as clearance (CL, L/h/kg), volume of distribution (Vss, L/kg), area under the curve (AUC, ng·h/mL) and secondary parameters such as half-life (t1/2, h) and oral bioavailability (% F, %). This was done using WinNonlin Enterprise software (Version 5.1.1, from Pharsight Corp., Mountain View, Calif.). References for pharmacokinetic analysis include: Gabrielsson and Weiner (1997) Pharmacokinetic and Pharmacodynamic Data Analysis Concepts and Applications, 2nd ed., Swedish Pharmaceutical Press, Stockholm; Gibaldi and Perrier (1982) Pharmacokinetics, 2nd ed., Marcel Dekker, New York. Rowland and Tozer (1995) Clinical Pharmacokinetics: Concepts and Applications, 3rd ed., Lippincott Williams & Wilkins, Philadelphia.
# [2] = IV 2 mg/kg, read-out: IV AUClast
# [3] = PO 5 mg/kg, read-out: Oral AUClast
# [4] = PO 5 mg/kg, read-out: Oral Cmax
Structure (SMILES),"inhibition at 10 min, 3 μM (CYP2D6)","inhibition at 10 min, 3 μM (CYP3A4)","FPO ([1]; PO 5 mg/kg, IV 2 mg/kg)","Fpo (%) ([1]; PO 5 mg/kg, IV 2 mg/kg)",clearance ([1]; IV 2 mg/kg),"AUC(0-t) [1, 2]","Cmax ([1]; IV 2 mg/kg, read-out: IV Cmax)",Vd ([1]; IV 2 mg/kg),"AUC(0-t) [1, 3]","Cmax [1, 4]"
"CC(F)(F)c1ccc([C@H](O)[C@H](N)CNc2ncc(-c3ccc4cnccc4c3)s2)cc1 [38′, reference compound]",88%,86%,4%,4%,108 mL/min/kg,299 ng·h/mL,412 ng/mL,6.67 L/kg,30 ng·h/mL,13 ng/mL
"N[C@H](CNc1ncc(-c2ccc3cnccc3c2)s1)Cc1ccc(C(F)(F)F)nc1 [2′, reference compound]",94%,100%,5%,5%,37.4 mL/min/kg,870 ng·h/mL,1260 ng/mL,2.32 L/kg,117 ng·h/mL,29 ng/mL
"CC(F)(F)c1ccc(C[C@H](N)CNc2ncc(-c3ccc4cnccc4c3)s2)cn1 [7′, reference compound]",79%,86%,4%,3%,97.9 mL/min/kg,336 ng·h/mL,490 ng/mL,4.55 L/kg,30 ng·h/mL,8 ng/mL
"N[C@H](CNc1ncc(-c2ccc3cnccc3c2)s1)CN1CCC(C(F)(F)F)CC1 [Comparative Example 25′, reference compound]",81%,94%,146%,65%,85.6 mL/min/kg,359 ng·h/mL,284 ng/mL,8.78 L/kg,1310 ng·h/mL,153 ng/mL
"N[C@H](CNc1ncc(-c2ccc3cnccc3c2)s1)Cc1ccc(Cl)c(F)c1 [44′, reference compound]",75%,94%,51%,45%,41.5 mL/min/kg,787 ng·h/mL,816 ng/mL,0.766 L/kg,1000 ng·h/mL,138 ng/mL
"COCc1nc(NC[C@@H](N)Cc2ccc(C(F)(F)F)cc2)sc1-c1ccc2cnccc2c1 [24′, reference compound]",94%,100%,14%,19%,90.1 mL/min/kg,369 ng·h/mL,465 ng/mL,10.2 L/kg,129 ng·h/mL,51 ng/mL
"N[C@H](CNc1ncc(-c2ccc3cnccc3c2)s1)[C@@H](CO)c1ccc(C(F)(F)F)cc1 [33′, reference compound]",88%,91%,12%,10%,47.5 mL/min/kg,691 ng·h/mL,797 ng/mL,4.18 L/kg,199 ng·h/mL,23 ng/mL
"C[C@@H](c1ccc(C(F)(F)F)cc1)[C@H](N)CNc1ncc(-c2ccc3cnccc3c2)s1 [10′, reference compound]",86%,94%,12%,25%,19.1 mL/min/kg,1680 ng·h/mL,730 ng/mL,9.46 L/kg,487 ng·h/mL,73 ng/mL
"N[C@H](CCc1ncc(-c2ccc3cnccc3c2)s1)[C@@H](O)c1ccc(C(F)(F)F)cc1 [36′, reference compound]",86%,72%,20%,19%,150 mL/min/kg,221 ng·h/mL,347 ng/mL,13.2 L/kg,113 ng·h/mL,27 ng/mL
"N[C@H](CNc1ncc(-c2ccc3cnccc3c2)s1)Cc1ccc(C(F)(F)F)cc1 [4′, reference compound]",78%,87%,27%,20%,50.9 mL/min/kg,651 ng·h/mL,422 ng/mL,6.17 L/kg,432 ng·h/mL,86 ng/mL
